Data on 13 molecules can be found in patent US6617315B1, “Therapeutic compounds” (priority 1996, dated 2003).

The subject of one data set is MRC5 cells. The data set is described as follows: Compound cytotoxicity on uninfected MRC5 cell monolayers. The class given is cell-based, human. As to the method: (§1) HCMV strain AD169 was grown on monolayers of human embryonic lung cells (MRC5 cells) in 96 well plates. After infection of the cells at a ratio of approximately 0.01 infectious virus particals per cell, the compounds to be tested were added to selected wells at six different concentrations, each in triplicate The same concentrations of compound were also applied to wells containing monolayers of uninfected cells in order to assess compound cytotoxicity. The plates were incubated for 5 days, and the minimum cytotoxic dose was estimated from microscopic examination. The IC50 for antiviral effect was estimated from measurements of HCMV DNA in each well by blotting and quantitative specific DNA hybridization, similar to the method of Gadler. (Antimicrob. Agents Chemother. 1983, 24, 370-374).

For another data set, the system named is HCMV strain AD169. The data set is described as follows: Human Cytomegalovirus (HCMV) assay, antiviral effect by HCMV DNA hybridization. Conditions: HCMV strain AD169 on MRC5 cell monolayers, 96 well plates, 5 days incubation, HCMV DNA by blotting and quantitative specific DNA hybridization. The class given is cell-based. As to the method: Human Cytomegalovirus (HCMV) Assay
as §1

Data set [1] can be described thus: Compound cytotoxicity on uninfected MRC5 cell monolayers. Type of data set: cell-based, human. Conditions: uninfected MRC5 cell monolayers (human embryonic lung cells); uninfected human embryonic lung cells (MRC5), 5 days incubation, estimated from microscopic examination; read-out: MRC5 tox CC50. As to the method:
as §1

The molecule “2-(Isopropylamino)-4,5,6-trichloro-1-(beta-L-erythro-pentofuranosyl)-1H-benzimidazole [Example 58]” showed a CC50 in the data set with MRC5 cells of 20 µM. In the data set on HCMV strain AD169, this molecule gave an IC50 of 0.15 µM.

`C[C@@H]1O[C@H](n2c(NC3CC3)nc3cc(Cl)c(Cl)cc32)[C@@H](O)[C@H]1O` [Example 1, 2-Cyclopropylamino-5,6-dichloro-1-(5-deoxy-beta-L-ribofuranosyl)-1H-benzimidazole] gave a melting point of 186 to 187 °C. For the same molecule, the CC50 at 5 days in data set [1] is 100 µM. Besides, the IC50 in the data set on HCMV strain AD169 (Human betaherpesvirus 5, 120 h) was 2.1 µM.

Regarding `CC(C)Nc1nc2cc(Cl)c(Cl)cc2n1[C@H]1O[C@@H](C)[C@H](O)[C@@H]1O` [Example 3, 2-Isopropylamino-5,6-dichloro-1-(5-deoxy-beta-L-ribofuranosyl)-1H-benzimidazole], the melting point was in the range of 103 to 105 °C. Moreover, the cytotoxic concentration (CC50) at 5 days in data set [1] was 30 µM. This molecule came in with an IC50 with HCMV strain AD169 (Human betaherpesvirus 5, 120 h) of 0.6 µM.

In turn, `C[C@@H]1O[C@H](n2c(Br)nc3cc(Cl)c(Cl)cc32)[C@@H](O)[C@H]1O` [Example 4, 2-Bromo-5,6-dichloro-1-(5-deoxy-beta-L-ribofuranosyl)-1H-benzimidazole] registered a melting point of 136 to 138 °C.

In the case of `CC(C)Nc1nc2cc(Cl)c(Cl)cc2n1[C@H]1O[C@@H](CCl)[C@H](O)[C@@H]1O` [Example 12, 1-(5-Chloro-5-deoxy-beta-L-ribofuranosyl)-5,6-dichloro-2-isopropylamino-1H-benzimidazole], the melting point was in the range of 95 to 97 °C. In addition, the CC50 at 5 days in data set [1] is 30 µM. Further, in the data set with HCMV strain AD169 (Human betaherpesvirus 5, 120 h), 1.4 µM corresponded to half-maximal inhibition (IC50).

`CC(C)(C)Nc1nc2cc(Cl)c(Cl)cc2n1[C@H]1O[C@@H](CCl)[C@H](O)[C@@H]1O` [Example 14, 2-tert-Butylamino-1-(5-Chloro-5-deoxy-beta-L-ribofuranosyl)-5,6-dichloro-1H-benzimidazole] had a melting point of 112 to 114 °C. In addition, the CC50 at 5 days in data set [1] is 30 µM. In the data set with HCMV strain AD169 (Human betaherpesvirus 5, 120 h), this molecule had an IC50 of 1 µM.

Molecule `CC(C)Nc1nc2cc(Cl)c(Cl)cc2n1[C@H]1O[C@@H](CO)C[C@@H]1O` [Example 16, 5,6-Dichloro-1-(3-deoxy-beta-L-ribofuranosyl)-2-isopropylamino-1H-benzimidazole] yielded a melting point of 153 to 155 °C. Moreover, the CC50 at 5 days in data set [1] was 100 µM. In the data set with HCMV strain AD169 (Human betaherpesvirus 5, 120 h), this molecule gave an IC50 of 0.2 µM.

Molecule `CC(C)Nc1nc2cc(Cl)c(Cl)cc2n1[C@@H]1C[C@@H](O)[C@H](CO)O1` [Example 19, 5,6-Dichloro-1-(2-deoxy-beta-L-erythro-pentofuranosyl)-2-isopropylamino-1H-benzimidazole] gave a melting point of 114 to 115 °C. For the same molecule, in data set [1], the CC50 at 5 days is 100 µM. The molecule further gave an IC50 in the data set on HCMV strain AD169 (Human betaherpesvirus 5, 120 h) of 0.1 µM.

In the case of `CC(C)Nc1nc2c(Cl)c(Cl)c(Cl)cc2n1[C@H]1O[C@@H](CO)[C@H](O)[C@@H]1O` [Example 31, 2-(Isopropylamino)-4,5,6-trichloro-1-(beta-L-ribofuranosyl)-1H-benzimidazole], the melting point was 223 to 224 °C.

The molecule `CC(C)Nc1nc2c(Br)c(Cl)c(Cl)cc2n1[C@H]1O[C@@H](CO)[C@H](O)[C@@H]1O` [Example 39, 4-Bromo-5,6-dichloro-2-(isopropylamino)-1-(beta-L-ribofuranosyl)-1H-benzimidazole] showed a melting point of 221 to 222 °C.

In the case of `CC(C)Nc1nc2cc(F)c(F)cc2n1[C@H]1O[C@@H](CO)[C@H](O)[C@@H]1O` [Example 46, 5,6-Difluoro-2-(isopropylamino)-1-(beta-L-ribofuranosyl)-1H-benzimidazole], the melting point fell in the range of 156 to 158 °C.

In turn, `CC(C)Nc1nc2c(Cl)cccc2n1[C@H]1O[C@@H](CO)[C@H](O)[C@@H]1O` [Example 50, 4-Chloro-2-(isopropylamino)-1-(beta-L-ribofuranosyl)-1H-benzimidazole] showed a melting point of 225 to 227 °C.

Molecule `CC(C)Nc1nc2c(Cl)cc(Cl)cc2n1[C@H]1O[C@@H](CO)[C@H](O)[C@@H]1O` [Example 53, 4,6-Dichloro-2-(isopropylamino)-1-(beta-L-ribofuranosyl)-1H-benzimidazole] registered a melting point of 212 to 214 °C. Also, the CC50 at 5 days in data set [1] was 100 µM. The molecule also displayed an IC50 in the data set with HCMV strain AD169 (Human betaherpesvirus 5, 120 h) of 0.15 µM.
